# From US8232298B2, “Inhibitors of the interaction between MDM2 and P53” (Janssen Pharmaceutica N.V., priority 2006, dated 2012)
# Like-named read-outs stand apart in the source and are kept apart here.
# Tests used:
# p53 in A2780 cells = experiment: p53 ELISA: capacity to preserve p53 in A2780 cells; type: cell-based; conditions: treated with compound for 16 hours, in M
# Description: The capacity of the compounds to preserve p53 in A2780 cells was measured with the p53 enzyme linked immunosorbent assay. The p53 assay is a “sandwich” enzyme immunoassay employing two polyclonal antibodies. A polyclonal antibody, specific for the p53 protein, has been immobilized onto the surface of the plastic wells. Any p53 present in the sample to be assayed will bind to the capture antibody. The biotinylated detector polyclonal antibody also recognizes p53 protein, and will bind to any p53, which has been retained by the capture antibody. The detector antibody, in turn, is bond by horseradish peroxidase-conjugated streptavidin. The horseradish peroxidase catalyses the conversion of the chromogenic substrate o-phenylene diamine, the intensity of which is proportional to the amount of p53 protein bond to the plate. The colored reaction product is quantified using a spectrophotometer. Quantitation is achieved by the construction of a standard curve using known concentrations of purified recombinant HIS tagged p53 protein (see example C.1.).
# A2780 cells (ATCC) were cultivated in RPMI 1640 supplemented with 10% fetal calf serum (FCS), 2 mM L-glutamine and gentamycin at 37° C. in a humidified incubator with 5% CO2.
# A2780 cells were seeded at 20.000 cells per well in a 96 well plate, cultured for 24 hours and treated with compound for 16 hours at 37° C. in a humidified incubator. After incubation, the cells were washed once with phosphate-buffered saline and 30 μl, per well, low salt RIPA buffer (20 mM tris, pH7.0, 0.5 mM EDTA, 1% Nonidet P40, 0.5% DOC, 0.05% SDS, 1 mM PMSF, 1 μg/ml aprotinin and 0.5 μ/ml leupeptin) was added. Plates were placed on ice for 30 minutes to complete the lysis. p53 protein was detected in de lysates by using the sandwich ELISA, described below.
# High binding polystyrene EIA/RIA 96 well plates (Costar 9018) were coated with the capture antibody pAb1801 (Abeam ab28-100) at a concentration of 1 μg/ml in coating buffer (0.1 M NaHCO3 pH8.2), 50 μl per well. The antibody was allowed to adhere overnight at 4° C. Coated plates were washed once with phosphate-buffered saline (PBS)/0.05% Tween 20 and 300 μl of blocking buffer (PBS, 1% bovine serum albumins (BSA)) was added, for an incubation period of 2 hours at room temperature. Dilutions of purified recombinant HIS tagged p53 protein, ranging from 3-200 ng/ml, were made in blocking buffer and used as standards.
# Plates were washed twice with PBS/0.05% Tween 20 and blocking buffer or standards were added at 80 μl/well. To the standards, 20 μl of lysis buffer was added. The samples were added to the other wells at 20 μl lysate/well. After an overnight incubation at 4° C., plates were washed twice with PBS/0.05% Tween 20. Aliquots of 100 μl secondary polyclonal antibody p53(FL-393) (Tebubio, sc-6243) at a concentration of 1 μg/ml in blocking buffer were added to each well and allowed to adhere for 2 hours at room temperature. Plates were washed three times with PBS /0.05% Tween 20. Detection antibody anti-rabbit HRP (sc-2004, Tebubio) at 0.04 μg/ml in PBS/1% BSA was added and incubated for 1 hour at room temperature. Plates were washed three times with PBS/0.05% Tween 20 and 100 μl of substrate buffer was added (substrate buffer was prepared shortly before use by adding 1 tablet of 10 mg o-phenylene diamine (OPD) from Sigma and 125 μl 3% H2O2 to 25 ml OPD buffer: 35 mM citric acid, 66 mM Na2HPO4, pH5.6). After 5 to 10 minutes, colour reaction was stopped by adding 50 μl stop buffer (1 M H2SO4) per well. The absorbance at dual wavelengths of 490/655 nm was measured using a Biorad micro plate reader and the results were then analyzed.
# For each experiment, controls (containing no drug) and a blank incubation (containing no cells or drugs) were run in parallel. The blank value was subtracted from all control and sample values. For each sample, the value of p53 (in absorbance units) was expressed as the percentage of the value for p53 present in the control. […]
# U87MG cells = experiment: Proliferation assay (MTT) on U87MG tumour cells; type: cell-based; conditions: Homo sapiens, U-87 MG
# Description: Cellular activity of the compounds of formula (I) was determined on U87MG tumour cells using a colorimetric assay for cell toxicity or survival (see example C.2).
# U87MG cells are human glioblastoma cells with wild type p53. In this cell line MDM2 tightly controls p53 expression.
# All compounds tested were dissolved in DMSO and further dilutions were made in culture medium. Final DMSO concentrations never exceeded 0.1% (v/v) in cell proliferation assays. Controls contained U87MG cells and DMSO without compound and blanks contained DMSO but no cells.
# U87MG cells were seeded in 96-well cell culture plates at 3000 cells/well/100 μl. 24 hours later, medium was changed and compound and/or solvent were added to a final volume of 200 μl. Following 4 days of incubation, medium was replaced by 200 μl fresh medium and cell growth was assessed using a MTT-based assay. Therefore, 25 μl of the MTT solution (0.5% MTT research grade from Serva in phosphate-buffered saline ) was added to each well and the cells were further incubated for 2 hours at 37° C. The medium was then carefully aspirated and the blue MTT-formazan product was dissolved by adding to each well 25 μl 0.1M glycin and 100 μl DMSO. The plates were shaken for another 10 min on a micro plate shaker before reading absorbance at 540 nm by a Biorad micro plate reader.
# Within an experiment, the results for each experimental condition are the mean of 3 replicate wells. For initial screening purposes, compounds were tested at a single fixed concentration of 10^−5 M. For active compounds, the experiments were repeated to establish full concentration-response curves. For each experiment, controls (containing no drug) and a blank incubation (containing no cells or drugs) were run in parallel. The blank value was subtracted from all control and sample values. For each sample, the mean value for cell growth (in absorbance units) was expressed as a percentage of the mean value for cell growth of the control. When appropriate, IC50-values (concentration of the drug, needed to reduce cell growth to 50% of the control) were computed using probit analysis for graded data (Finney, D. J., Probit Analyses, 2nd Ed. Chapter 10, Graded Responses, Cambridge University Press, Cambridge 1962). Herein the effects of test compounds are expressed as pIC50 (the negative log value of the IC50-value) (see table F-2).
# In some of the experiments the proliferation assay was adapted for and used in 384-well culture plates (see table F-2).
# [1] = 96 h, 96-well plates, 4 days of incubation, read-out: cell proliferation pIC50 96 well (converted)
# [2] = 384-well culture plates, read-out: cell proliferation pIC50 384 well (converted)
SMILES,melting point [°C],IC50 (U87MG cells; [1]) [µM],IC50 (U87MG cells; [2]) [µM],A2780 p53-elisa LAD (lowest dose giving at least 140% of the value for p53 present in the control) (p53 in A2780 cells)
c1cnc2[nH]cc(CCNc3ccc(Nc4ccncc4)cc3)c2c1 [Compound 2],182,4.37,,3.0E−06
c1cc(Nc2ccc(Nc3ccc4[nH]ccc4c3)cc2)ccn1 [Compound 4],,,1.41,1.0E−06
c1cc(Nc2ccc(NCCc3c[nH]c4sccc34)cc2)ccn1 [Compound 6],,,> 10,1.0E−05

# Continued, in another order:
melting point [°C],IC50 (U87MG cells; [1]) [µM],IC50 (U87MG cells; [2]) [µM],SMILES,A2780 p53-elisa LAD (lowest dose giving at least 140% of the value for p53 present in the control) (p53 in A2780 cells)
152 to 154,3.24,,c1ccc2c(CCNc3ccc(Nc4ccncc4)cc3)coc2c1 [Compound 1],1.0E−05
256,7.08,,c1cc(Nc2ccc(NCCc3cnc4n3CCCC4)cc2)ccn1 [Compound 3],3.0E−06
184 to 186,4.47,,COc1ccc2c(CCNc3ccc(Nc4ccncc4)cc3)coc2c1 [Compound 5],1.0E−05
